In patent publication US6214859A, “Ethylamine derivatives” (Fujimoto Brothers Co., Ltd., priority 1997, dated 2001):
“And” between values parts separate entries of the source, which are not always exact repeats. Identical values can stand only once.

Columns and labels:
[1] = Toxicity screening using primary cultured hepatocyte (LDH release); type: cell-based, rat; details: rat, primary hepatocytes, 24 hr, control 0.5% saline or 0.5% DMSO, read-out: Percent control of LDH release
Experimental: The hepatocytes was prepared from rat liver by collagenase perfusion method and suspension containing 5×10^5 cells/ml were prepared. After cultivation for 24 hr, the suspension was exchanged to the William's Medium E (GIBCO BRL) containing 10 or 100 μM of the compounds of this invention. After cultivation for 24 hr, the activity of lactate dehydrogenase (LDH) released in the medium was measured.

[2] = test system: dopamine release, tuberculum olfactorium; assay: Release of biogenic amines from brain tissue: dopamine, tuberculum olfactorium; type: in vivo, Wistar rats
[3] = test system: dopamine release, striatum; assay: Release of biogenic amines from brain tissue: dopamine, striatum; type: in vivo, Wistar rats
[4] = test system: noradrenaline release, locus coeruleus; assay: Release of biogenic amines from brain tissue: noradrenaline, locus coeruleus; type: in vivo, Wistar rats
[5] = test system: rats reduced learning ability by tetrabenazine; assay: Conditioned avoidance task in the shuttle box (tetrabenazine-treated rats); type: in vivo, rat; details: tetrabenazine 1 mg/kg s.c., significance and direction
In short: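 Male and female rats (200–220 g) were trained in a shuttle box (light/buzzer conditioned stimulus, 100 trials/day for 5 days). Tetrabenazine 1 mg/kg s.c. was given 1 h before testing, with compound at 1, 2, 2.5 or 5 mg/kg s.c. given together with tetrabenazine. CARs, EFs and IRs were counted automatically and analysed by multi-way ANOVA.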

serotonin release, raphe = assay: Release of biogenic amines from brain tissue: serotonin, raphe; type: in vivo, Wistar rats
[6] = test system: dopamine release, substantia nigra; assay: Release of biogenic amines from brain tissue: dopamine, substantia nigra; type: in vivo, Wistar rats

## CCCNC(CCC)Cc1ccc2c(c1)OCO2.Cl (stereo not shown) [Compound No. 27, 1-(1,3-Benzodioxol-5-yl)-2-propylaminopentane Hydrochloride]
[1]
  activity at 24 h, 10 µM: 115 ± 10.8%
  activity at 24 h, 100 µM: 114 ± 11.2%
[2]; 0.10 mg/kg s.c.
  Release of dopamine, tuberculum olfactorium: 4.7 ± 0.13 nmol/g tissue, for 20 min
[2]; 0.25 mg/kg s.c.
  Release of dopamine, tuberculum olfactorium: 5.2 ± 0.23 nmol/g tissue, for 20 min
[3]; 0.10 mg/kg s.c.
  Release of dopamine, striatum: 3.4 ± 0.10 nmol/g tissue, for 20 min
[3]; 0.25 mg/kg s.c.
  Release of dopamine, striatum: 4.1 ± 0.24 nmol/g tissue, for 20 min
[4]; 0.10 mg/kg s.c.
  Release of noradrenaline, locus coeruleus: 3.8 ± 0.15 nmol/g tissue, for 20 min
[4]; 0.25 mg/kg s.c.
  Release of noradrenaline, locus coeruleus: 3.5 ± 0.20 nmol/g tissue, for 20 min
[5]; 1 mg/kg s.c.
  Condition Avoidance Reflex (CARs): *** .Arrow-up bold.
  Escape Failures (EFs): *** .dwnarw.
Serotonin release, raphe; 0.10 mg/kg s.c.
  Release of serotonin, raphe: 0.399 ± 0.00 nmol/g tissue, for 20 min
Serotonin release, raphe; 0.25 mg/kg s.c.
  Release of serotonin, raphe: 0.414 ± 0.01 nmol/g tissue, for 20 min
[6]; 0.10 mg/kg s.c.
  Release of dopamine, substantia nigra: 7.8 ± 0.44 nmol/g tissue, for 20 min
[6]; 0.25 mg/kg s.c.
  Release of dopamine, substantia nigra: 9.5 ± 0.32 nmol/g tissue, for 20 min

## CCCNC(CCC)Cc1c[nH]c2ccccc12.Cl (stereo not shown) [Compound No. 20, 1-(Indol-3-yl)-2-propylaminopentane Hydrochloride]
[1]
  activity at 24 h, 10 µM: 92.7 ± 5.31%
  activity at 24 h, 100 µM: 185 ± 3.45%
[2]; 0.005 mg/kg s.c.
  Release of dopamine, tuberculum olfactorium: 7.0 ± 0.25 nmol/g tissue, for 20 min
[2]; 0.01 mg/kg s.c., Hydrochloride
  Release of dopamine, tuberculum olfactorium: 8.0 ± 0.17 nmol/g tissue, for 20 min and 5.5 ± 0.20 nmol/g tissue, for 20 min
[2]; 0.05 mg/kg s.c.
  Release of dopamine, tuberculum olfactorium: 5.8 ± 0.19 nmol/g tissue, for 20 min
[2]; 0.25 mg/kg s.c.
  Release of dopamine, tuberculum olfactorium: 3.5 ± 0.21 nmol/g tissue, for 20 min
[2]; 1.00 mg/kg s.c.
  Release of dopamine, tuberculum olfactorium: 4.3 ± 0.07 nmol/g tissue, for 20 min
[2]; 5.00 mg/kg s.c.
  Release of dopamine, tuberculum olfactorium: 4.8 ± 0.09 nmol/g tissue, for 20 min
[3]; 0.005 mg/kg s.c.
  Release of dopamine, striatum: 5.8 ± 0.11 nmol/g tissue, for 20 min
[3]; 0.01 mg/kg s.c., Hydrochloride
  Release of dopamine, striatum: 6.5 ± 0.12 nmol/g tissue, for 20 min and 5.8 ± 0.18 nmol/g tissue, for 20 min
[3]; 0.05 mg/kg s.c.
  Release of dopamine, striatum: 5.6 ± 0.13 nmol/g tissue, for 20 min
[3]; 0.25 mg/kg s.c.
  Release of dopamine, striatum: 3.2 ± 0.05 nmol/g tissue, for 20 min
[3]; 1.00 mg/kg s.c.
  Release of dopamine, striatum: 4.2 ± 0.15 nmol/g tissue, for 20 min
[3]; 5.00 mg/kg s.c.
  Release of dopamine, striatum: 4.7 ± 0.13 nmol/g tissue, for 20 min
[4]; 0.005 mg/kg s.c.
  Release of noradrenaline, locus coeruleus: 5.3 ± 0.30 nmol/g tissue, for 20 min
[4]; 0.01 mg/kg s.c., Hydrochloride
  Release of noradrenaline, locus coeruleus: 4.3 ± 0.10 nmol/g tissue, for 20 min and 2.2 ± 0.15 nmol/g tissue, for 20 min
[4]; 0.05 mg/kg s.c.
  Release of noradrenaline, locus coeruleus: 3.2 ± 0.15 nmol/g tissue, for 20 min
[4]; 0.25 mg/kg s.c.
  Release of noradrenaline, locus coeruleus: 4.3 ± 0.15 nmol/g tissue, for 20 min
[4]; 1.00 mg/kg s.c.
  Release of noradrenaline, locus coeruleus: 4.4 ± 0.25 nmol/g tissue, for 20 min
[4]; 5.00 mg/kg s.c.
  Release of noradrenaline, locus coeruleus: 3.5 ± 0.20 nmol/g tissue, for 20 min
[5]; 1 mg/kg s.c., Hydrochloride
  Condition Avoidance Reflex (CARs): * .Arrow-up bold.
[5]; 2.5 mg/kg s.c.
  Condition Avoidance Reflex (CARs): **** .Arrow-up bold.
  Escape Failures (EFs): **** .dwnarw.
[5]; 5 mg/kg s.c.
  Condition Avoidance Reflex (CARs): **** .Arrow-up bold.
  Escape Failures (EFs): * .dwnarw.
  Intersignal Reactions (IRs): * .dwnarw.
Serotonin release, raphe; 0.005 mg/kg s.c.
  Release of serotonin, raphe: 0.492 ± 0.02 nmol/g tissue, for 20 min
Serotonin release, raphe; 0.01 mg/kg s.c., Hydrochloride
  Release of serotonin, raphe: 0.961 ± 0.02 nmol/g tissue, for 20 min and 0.938 ± 0.01 nmol/g tissue, for 20 min
Serotonin release, raphe; 0.05 mg/kg s.c.
  Release of serotonin, raphe: 1.203 ± 0.08 nmol/g tissue, for 20 min
Serotonin release, raphe; 0.25 mg/kg s.c.
  Release of serotonin, raphe: 0.481 ± 0.05 nmol/g tissue, for 20 min
Serotonin release, raphe; 1.00 mg/kg s.c.
  Release of serotonin, raphe: 0.355 ± 0.05 nmol/g tissue, for 20 min
Serotonin release, raphe; 5.00 mg/kg s.c.
  Release of serotonin, raphe: 0.565 ± 0.01 nmol/g tissue, for 20 min
[6]; 0.005 mg/kg s.c.
  Release of dopamine, substantia nigra: 8.7 ± 0.13 nmol/g tissue, for 20 min
[6]; 0.01 mg/kg s.c., Hydrochloride
  Release of dopamine, substantia nigra: 10.3 ± 0.23 nmol/g tissue, for 20 min and 10.0 ± 0.14 nmol/g tissue, for 20 min
[6]; 0.05 mg/kg s.c.
  Release of dopamine, substantia nigra: 7.7 ± 0.15 nmol/g tissue, for 20 min
[6]; 0.25 mg/kg s.c.
  Release of dopamine, substantia nigra: 5.2 ± 0.26 nmol/g tissue, for 20 min
[6]; 1.00 mg/kg s.c.
  Release of dopamine, substantia nigra: 6.7 ± 0.19 nmol/g tissue, for 20 min
[6]; 5.00 mg/kg s.c.
  Release of dopamine, substantia nigra: 5.7 ± 0.18 nmol/g tissue, for 20 min
